# Experimental data from publication PMC6195125 (European journal of medicinal chemistry, 2018).
# Where two headings read alike, the source gives them in different places.
# Legend:
# mammalian cell = conditions: read-out: Cytotoxicity IC50; cited from earlier work
# P. falciparum = conditions: read-out: P. falciparum IC50; in vitro; cited from earlier work
# [1] = system: P. falciparum stage V gametocytes; assay: ATP bioluminescence assay, mature gametocytes; format: cell-based, Plasmodium falciparum; conditions: read-out: Pf stage V gametocytes IC50
# [2] = system: P. berghei exo-erythrocytic forms (EEF); format: cell-based, Plasmodium berghei; conditions: read-out: Pb EEF IC50; P. berghei-Luc in HepG2-A16-CD81EGFP cells, 48 h
# HepG2-A16-CD81EGFP cells = assay: HepG2 cytotoxicity bioluminescence assay; format: cell-based, human; conditions: read-out: HepG2 IC50
# [3] = system: P. falciparum NF54 late stage gametocytes (IV-V); assay: Imaging-based viability assay, late stage gametocytes; format: cell-based; conditions: Plasmodium falciparum, NF54, read-out: Pf LSG inhibition at 40 μM
# P. falciparum 3D7 = format: cell-based; conditions: Plasmodium falciparum, 3D7, read-out: P.falciparum IC50 Pf3D7
# P. falciparum Dd2 = assay: microbe, parasite or virus in culture; format: cell-based; conditions: Plasmodium falciparum, DD2, read-out: P.falciparum IC50 PfDd2
# [4] = system: normal human neonatal foreskin fibroblasts (NFFs); assay: Cytotoxicity against neonatal foreskin fibroblasts; format: cell-based; conditions: Fibroblast, read-out: NFF IC50
compound,measurement,setting,value
Cc1[nH]c2ccccc2c1CCNCc1ccc(/C=C/C(=O)NO)cc1 [Panobinostat],IC50,mammalian cell,70 to 180 nM
same,IC50,P. falciparum,10 to 30 nM
O=C(/C=C/c1cccc(S(=O)(=O)Nc2ccccc2)c1)NO [Belinostat],IC50,mammalian cell,1420 to 2370 nM
same,IC50,P. falciparum,60 to 130 nM
"CC(/C=C/C(=O)NO)=C\[C@@H](C)C(=O)c1ccc(N(C)C)cc1 [Trichostatin A (TSA), Trichostatin A]",IC50,P. falciparum,8 to 11 nM
"Methyl 4-((3,5-dimethyl-N-(2-oxo-2-(p-tolylamino)ethyl)benzamido)methyl)benzoate [Compound 1m]",IC50,"[1]; ATP assay, 48 h incubation",10100 ± 3720 nM
same,IC50,[2],5550 nM
same,IC50,HepG2-A16-CD81EGFP cells; Table 4,21400 nM
same,IC50,"HepG2-A16-CD81EGFP cells; Table 7 and text, 48 h",21400 nM
O=C(CN(Cc1ccc(C(=O)NO)cc1)C(=O)c1cccc2ccccc12)NC1CCCCC1 [Compound 1g],inhibition at 40 µM,[3],97%
"CCN(CC)CCCC(C)Nc1ccnc2cc(Cl)ccc12 (centres unmarked) [CQ, chloroquine]",IC50,P. falciparum 3D7,11 nM
same,IC50,P. falciparum Dd2,49 nM
CN(C)c1ccc2nc3ccc(N(C)C)cc3[s+]c2c1 [methylene blue],IC50,"[1]; Plasmodium falciparum, 48 h",210000 nM
CCC(=O)CCCCC[C@@H]1NC(=O)[C@H]2CCCCN2C(=O)[C@H]([C@@H](C)CC)NC(=O)[C@H](Cc2cn(OC)c3ccccc23)NC1=O [Apicidin],IC50,mammalian cell,50 to 100 nM
same,IC50,P. falciparum,200 nM
Cc1ccc(NC(=O)CN(Cc2ccc(C(=O)NO)cc2)C(=O)c2cccc3ccccc23)cc1 [Compound 1k],IC50,[4],> 10000 nM
"O=C1C(O)=C([C@H]2CC[C@H](c3ccc(Cl)cc3)CC2)C(=O)c2ccccc21 [ATQ, Atovaquone]",IC50,"HepG2-A16-CD81EGFP cells; Homo sapiens, HepG2, 48 h",> 500 nM
